Values joined by “and” are separate entries in the source; they are usually repeats but may differ in a detail not shown here. Equal entries are not always repeated.

In one data set the test system is PC3 cells. As to the kind of experiment: Cell uptake / intracellular concentration by LC-MS/MS, PC3. The class given is in vitro ADME, human. Particulars: PC3, 24 h incubation with 10 μM. As for the experimental part: (§1) Therefore, in order to better comprehend the observed activities of our degraders, following incubation of each compound with cells, the intracellular concentrations of the synthesized derivatives were evaluated in different cancer cell lines, as described previously.[28],[29] SKBR3, PC3, or A549 cells were incubated with PROTACs (at a 10 μΜ concentration) for selected time points, respectively. Upon sample treatment, compounds were extracted and analyzed by LC-MS/MS. Table 1 presents the percentage of the molecule that enters the cells after 24 h incubation at the 10 μM concentration. […] The small molecule MYCi361, used as a binding domain component of MYC, was also evaluated in the cell uptake assay (Table 1).
(§2) Cells were plated in 24-well plates at a density of 2 × 10^5 cells/well. 24 h after seeding, cells were incubated with each PROTAC (10 μΜ) for certain time points (1 h, 4 h, 8 h, and 24 h). The incubations were terminated at the selected time points by removing the medium and washing the cells twice with 1 mL cold PBS (1×) in each well in order to remove unbound PROTAC. Subsequently, the cells were lysed by adding a cold solution of ACN:H2O (3:2) and scraping off the cell monolayer. This process was done in two steps: first, 200 μL of ACN:H2O was added, the cells were scraped, and the cell lysate was collected. The second step involved the addition of an extra 100 μL of ACN:H2O, scraping, and collection of the remaining lysate. Samples were subsequently vortexed, sonicated, and centrifuged for 10 min at 13 000 rpm. The supernatants were collected, evaporated for 1 h at 55 °C, and stored at −20 °C until the day of analysis. Samples were then reconstituted in 200 μL of initial mobile phase (100% A), and the intracellular accumulation of PROTACs was determined by LC-MS/MS analysis using Warfarin as a stable internal standard and PROTAC standards for the construction of analytical standard curves.
(§3) The percentage of cell uptake was calculated as follows: [drawing 1]

In data set [1] the test system is A549 cells. The data set can be described thus: Cell viability (MTT) assay, A549. Particulars: 72 h. The class given is cell-based, human. As for the experimental part: The antiproliferative activity of the synthesized compounds was tested in cell viability assays optimally set up for various cancer cell lines (results are depicted in Table 2, n = 3, average IC50 (μM) ± SD).
Cells were plated at a density of 5 × 10^3 cells per well on 96-well plates. After 24 h of incubation (37 °C, 5% CO2), the cell medium was removed, and compounds were added at selected concentrations (0.1–100 μM), followed by incubation for 72 h. Control cells were treated with 0.4% DMSO medium to match the conditions in the wells where drugs were added. After 72 h, the medium was removed, and the 3-(4,5-dimethylthiazol-2-yl)-2,5-diphenyltetrazolium bromide (MTT) solution (0.3 mg/mL in PBS) was added to cells for 3 h under no light conditions. The MTT solution was removed, and the formazan crystals were dissolved in 100 μL of DMSO. The optical density was measured at 570 nm with a reference wavelength of 690 nm using an absorbance microplate reader (SpectraMax 190, Molecular Devices, Sunnyvale, CA, USA). The half-maximal inhibitory concentration (IC50) was calculated based on a four-parameter logistic equation, generating a cell viability curve, using GraphPad Prism 6.01 (GraphPad Software, Inc.). […] The resulting absorbance values were used instead of IC50 calculation. […]

Data set [2] is described as follows: Stability of PROTACs in cell medium (DMEM), LC-MS/MS. The class given is physicochemical. Particulars: 72 h at 37 °C, 5 μM in DMEM (10% FBS). As for the experimental part:
The stability of selected molecules, such as CSI86, was studied in cell medium over a time frame of 72 h at 37 °C.
The stability of most compounds, including CSI86 PROTAC, was evaluated in DMEM. The drug was prepared at a concentration of 5 μM in DMEM (10% FBS, 1% pen/strep) and aliquoted at approximately 200 μL per Eppendorf. The samples were collected at appropriate time points (0, 1 h, 2 h, 4 h, 8 h, 24 h, 48 h, and 72 h) and stored at −80 °C. On the day of the LC-MS/MS analysis, samples were prepared (50 μL drug in DMEM + 50 μL ACN:H2O + 50 μL IS + 100 μL cold ACN), vortexed, sonicated, and centrifuged at 13 000 rpm for 15 min. Then, samples were transferred into glass tubes, diluted in the initial mobile phase (20% Α – 80% Β), centrifuged for 1 min, and added to a 96-well plate for the LC-MS/MS analysis.

For the next data set, the system named is SKBR3 cells. The data set can be described thus: Cell uptake / intracellular concentration by LC-MS/MS, SKBR3. It is filed as in vitro ADME, human. Particulars: SKBR3, 24 h incubation with 10 μM. As for the experimental part:
as §1, §2, §3

Data set [3] has as its system A549 cells. As to the kind of experiment: Cell uptake / intracellular concentration by LC-MS/MS, A549. It is filed as in vitro ADME, human. Particulars: A549, 24 h incubation with 10 μM. As for the experimental part:
as §1
Cells were plated in 24-well plates at a density of 2 × 10^5 cells/well. 24 h after seeding, cells were incubated with each PROTAC (10 μΜ) for certain time points (1 h, 4 h, 8 h, and 24 h). […] Samples were then reconstituted in 200 μL of initial mobile phase (100% A), and the intracellular accumulation of PROTACs was determined by LC-MS/MS analysis using Warfarin as a stable internal standard and PROTAC standards for the construction of analytical standard curves.
as §3

With `Cc1ncsc1-c1ccc(CNC(=O)[C@@H]2C[C@@H](O)CN2C(=O)[C@@H](NC(=O)CCCC(=O)NCCCOc2ccc(-c3cc(C(F)(F)F)nn3C)c(O)c2-c2cc(C(F)(F)F)cc(C(F)(F)F)c2)C(C)(C)C)cc1` [CSI107], the Uptake by cells in the data set with PC3 cells is 13% and 13 ± 3%.

As to `Cc1ncsc1-c1ccc(CNC(=O)[C@@H]2C[C@@H](O)CN2C(=O)[C@@H](NC(=O)CCC(=O)NCCCOc2ccc(-c3cc(C(F)(F)F)nn3C)c(O)c2-c2cc(C(F)(F)F)cc(C(F)(F)F)c2)C(C)(C)C)cc1` [CSI86], the “IC50 (antiproliferative effect)” value with A549 cells [1] was “inactive”. The “stability in cell medium (DMEM)” value in data set [2] was “stable”. For the same molecule, the Uptake by cells in the data set on SKBR3 cells is 26% and 26 ± 5%; in the data set with A549 cells [3], 10% and 10 ± 2%; in the data set on PC3 cells, 19% and 19 ± 4%. In the data set with SKBR3 cells (corresponding to the uptake), this molecule returned an intracellular concentration of 2.6 µM.

Values taken from publication PMC11650737, “Developing MYC Degraders Bearing the Von Hippel–Lindau Ligand to Target the “Undruggable” MYC” (ACS Pharmacology & Translational Science, 2024).
